Measurements from the NIST ThermoML archive (doi:10.1016/j.jct.2013.01.005).
Numbers after ± are expanded uncertainties.

Test: activity coefficient (dimensionless); of the first substance listed, at infinite dilution; xn = mol fraction of the nth substance listed
Conditions: 101 kPa, Liquid, Chromatography, x1 = 0

| SMILES | activity coefficient (308.15 K) | activity coefficient (318.15 K) | activity coefficient (328.15 K) | activity coefficient (338.15 K) | activity coefficient (348.15 K) | activity coefficient (358.15 K) |
| --- | --- | --- | --- | --- | --- | --- |
| Cc1ccccc1C [1,2-dimethylbenzene] + CCCCCC[N+]1(C)CCCCC1.O=S(=O)([N-]S(=O)(=O)C(F)(F)F)C(F)(F)F | 1.04 ± 0.07 | 1.08 ± 0.07 | 1.1 ± 0.07 | 1.13 ± 0.07 | 1.16 ± 0.07 | 1.18 ± 0.08 |
| Cc1ccccc1C [1,2-dimethylbenzene] + CCCCC[N+]1(C)CCCCC1.O=S(=O)([N-]S(=O)(=O)C(F)(F)F)C(F)(F)F | 1.06 ± 0.07 | 1.14 ± 0.07 | 1.16 ± 0.07 | 1.19 ± 0.08 | 1.24 ± 0.08 | 1.27 ± 0.08 |
| Cc1cccc(C)c1 [1,3-dimethylbenzene] + CCCCCC[N+]1(C)CCCCC1.O=S(=O)([N-]S(=O)(=O)C(F)(F)F)C(F)(F)F | 1.14 ± 0.07 | 1.16 ± 0.07 | 1.19 ± 0.08 | 1.23 ± 0.08 | 1.27 ± 0.08 | 1.29 ± 0.08 |
| Cc1cccc(C)c1 [1,3-dimethylbenzene] + CCCCC[N+]1(C)CCCCC1.O=S(=O)([N-]S(=O)(=O)C(F)(F)F)C(F)(F)F | 1.15 ± 0.07 | 1.24 ± 0.08 | 1.28 ± 0.08 | 1.31 ± 0.09 | 1.36 ± 0.09 | 1.39 ± 0.09 |
| Cc1ccc(C)cc1 [1,4-dimethylbenzene] + CCCCCC[N+]1(C)CCCCC1.O=S(=O)([N-]S(=O)(=O)C(F)(F)F)C(F)(F)F | 1.14 ± 0.07 | 1.17 ± 0.07 | 1.2 ± 0.08 | 1.24 ± 0.08 | 1.28 ± 0.08 | 1.3 ± 0.08 |
| Cc1ccc(C)cc1 [1,4-dimethylbenzene] + CCCCC[N+]1(C)CCCCC1.O=S(=O)([N-]S(=O)(=O)C(F)(F)F)C(F)(F)F | 1.16 ± 0.07 | 1.24 ± 0.08 | 1.28 ± 0.08 | 1.32 ± 0.09 | 1.37 ± 0.09 | 1.4 ± 0.09 |
| C=CCCCCCCCC [1-decene] + CCCCCC[N+]1(C)CCCCC1.O=S(=O)([N-]S(=O)(=O)C(F)(F)F)C(F)(F)F | 12.3 ± 0.8 | 12.1 ± 0.8 | 12 ± 0.8 | 11.8 ± 0.8 | 11.7 ± 0.8 | 11.5 ± 0.8 |
| C=CCCCCCCCC [1-decene] + CCCCC[N+]1(C)CCCCC1.O=S(=O)([N-]S(=O)(=O)C(F)(F)F)C(F)(F)F | 17.1 ± 1.2 | 16.5 ± 1.1 | 15.9 ± 1.1 | 15.5 ± 1.1 | 15.3 ± 1 | 14.6 ± 1 |
| C=CCCCCC [1-heptene] + CCCCCC[N+]1(C)CCCCC1.O=S(=O)([N-]S(=O)(=O)C(F)(F)F)C(F)(F)F | 5.89 ± 0.4 | 5.81 ± 0.4 | 5.69 ± 0.39 | 5.59 ± 0.38 | 5.45 ± 0.37 | 5.35 ± 0.36 |
| C=CCCCCC [1-heptene] + CCCCC[N+]1(C)CCCCC1.O=S(=O)([N-]S(=O)(=O)C(F)(F)F)C(F)(F)F | 7.42 ± 0.51 | 7.12 ± 0.49 | 6.88 ± 0.47 | 6.67 ± 0.45 | 6.48 ± 0.44 | 6.31 ± 0.43 |
| C#CCCCCC [1-heptyne] + CCCCCC[N+]1(C)CCCCC1.O=S(=O)([N-]S(=O)(=O)C(F)(F)F)C(F)(F)F | 2.39 ± 0.16 | 2.43 ± 0.17 | 2.46 ± 0.17 | 2.49 ± 0.17 | 2.52 ± 0.17 | 2.55 ± 0.17 |
| C#CCCCCC [1-heptyne] + CCCCC[N+]1(C)CCCCC1.O=S(=O)([N-]S(=O)(=O)C(F)(F)F)C(F)(F)F | 2.78 ± 0.19 | 2.81 ± 0.19 | 2.84 ± 0.19 | 2.87 ± 0.2 | 2.91 ± 0.2 | 2.94 ± 0.2 |
| C#CCCCC [1-hexyne] + CCCCCC[N+]1(C)CCCCC1.O=S(=O)([N-]S(=O)(=O)C(F)(F)F)C(F)(F)F | 1.85 ± 0.12 | 1.88 ± 0.13 | 1.92 ± 0.13 | 1.93 ± 0.13 | 1.96 ± 0.13 | 1.98 ± 0.13 |
| C#CCCCC [1-hexyne] + CCCCC[N+]1(C)CCCCC1.O=S(=O)([N-]S(=O)(=O)C(F)(F)F)C(F)(F)F | 2.09 ± 0.14 | 2.12 ± 0.14 | 2.14 ± 0.15 | 2.18 ± 0.15 | 2.22 ± 0.15 | 2.25 ± 0.15 |
| C#CCCCCCC [1-octyne] + CCCCCC[N+]1(C)CCCCC1.O=S(=O)([N-]S(=O)(=O)C(F)(F)F)C(F)(F)F | 3.1 ± 0.21 | 3.14 ± 0.21 | 3.19 ± 0.22 | 3.21 ± 0.22 | 3.24 ± 0.22 | 3.26 ± 0.22 |
| C#CCCCCCC [1-octyne] + CCCCC[N+]1(C)CCCCC1.O=S(=O)([N-]S(=O)(=O)C(F)(F)F)C(F)(F)F | 3.71 ± 0.25 | 3.74 ± 0.25 | 3.76 ± 0.26 | 3.79 ± 0.26 | 3.81 ± 0.26 | 3.84 ± 0.26 |
| C#CCCC [1-pentyne] + CCCCCC[N+]1(C)CCCCC1.O=S(=O)([N-]S(=O)(=O)C(F)(F)F)C(F)(F)F | 1.42 ± 0.09 | 1.45 ± 0.1 | 1.48 ± 0.1 | 1.5 ± 0.1 | 1.53 ± 0.1 | 1.54 ± 0.1 |
| C#CCCC [1-pentyne] + CCCCC[N+]1(C)CCCCC1.O=S(=O)([N-]S(=O)(=O)C(F)(F)F)C(F)(F)F | 1.54 ± 0.1 | 1.59 ± 0.11 | 1.62 ± 0.11 | 1.64 ± 0.11 | 1.69 ± 0.11 | 1.73 ± 0.12 |
| CC(C)CC(C)(C)C [2,2,4-trimethylpentane] + CCCCCC[N+]1(C)CCCCC1.O=S(=O)([N-]S(=O)(=O)C(F)(F)F)C(F)(F)F | 9.75 ± 0.67 | 9.59 ± 0.65 | 9.2 ± 0.63 | 8.95 ± 0.61 | 8.59 ± 0.59 | 8.43 ± 0.58 |
| CC(C)CC(C)(C)C [2,2,4-trimethylpentane] + CCCCC[N+]1(C)CCCCC1.O=S(=O)([N-]S(=O)(=O)C(F)(F)F)C(F)(F)F | 13.4 ± 0.9 | 12.5 ± 0.9 | 11.8 ± 0.8 | 11.4 ± 0.8 | 10.9 ± 0.7 | 10.6 ± 0.7 |
| CCC(C)(C)C [2,2-dimethylbutane] + CCCCCC[N+]1(C)CCCCC1.O=S(=O)([N-]S(=O)(=O)C(F)(F)F)C(F)(F)F | 6.67 ± 0.45 | 6.44 ± 0.44 | 6.12 ± 0.42 | 6 ± 0.41 | 5.84 ± 0.4 | 5.65 ± 0.39 |
| CCC(C)(C)C [2,2-dimethylbutane] + CCCCC[N+]1(C)CCCCC1.O=S(=O)([N-]S(=O)(=O)C(F)(F)F)C(F)(F)F |  | 7.94 ± 0.54 | 7.7 ± 0.53 | 7.34 ± 0.5 | 7.04 ± 0.48 | 6.86 ± 0.47 |
| CCCCC(C)=O [2-hexanone] + CCCCCC[N+]1(C)CCCCC1.O=S(=O)([N-]S(=O)(=O)C(F)(F)F)C(F)(F)F | 0.694 ± 0.047 | 0.706 ± 0.047 | 0.722 ± 0.048 | 0.74 ± 0.049 | 0.764 ± 0.05 | 0.784 ± 0.051 |
